Measured values reported in patent US20240018158A1, “BRM TARGETING COMPOUNDS AND ASSOCIATED METHODS OF USE” (Prelude Therapeutics Incorporated, priority 2020, published 2024).

Tests used:
[1] = test system: NCIH1693 cells; assay: Cell proliferation assay (ATPlite) in NCIH1693 cells; assay type: cell-based; details: H1693 cells, day 4; read-out: IC50 (PRO_H1693) antiproliferation potency
Method: One thousand NCIH1693 or NCIH1703 cells per well were seeded in 96 well plate and incubated at 37° C. for 5 hrs. A series of three-fold dilution of compounds from 10 mM stock concentration were added to the cells by using digital Dispenser D300-Tecan, keeping highest concentration 10 μM and normalizing with DMSO at the highest dispensed volume). Cells incubated with DMSO was used as a vehicle control. After compound treatment plates were incubated at 37° C. for 4 days and cell viability was measured by measuring ATP content from the cell lysate using ATPlite Luminescence assay system (PerkinElmer Cat. no #6016941). Percentage of viable cells, relative to DMSO vehicle control and maximum inhibition, was calculated and plotted in Graphpad Prism ([Inhibitor] vs. normalized response−Variable slope) to determine cell proliferation IC50 values on day 4.

[2] = target: bromo domain of SMARCA4 protein (Homo sapiens (Human), UniProt P40337+P51532); assay: SMARCA4 bromodomain ternary binding TR-FRET assay (with VCB); details: with saturating VCB (5 μM); read-out: IC50 (SM4_T) ternary binding potency in SMARCA4 FRET assay
Method: Recombinant bromo domain of SMARCA4 protein, was purchased from Active Motif (31401). The inhibitory activity of compounds was evaluated in vitro using TR-FRET assay with white 384-well low volume microplate (PerkinElmer ProxiPlate Plus), in which the compound competes the same binding site with the ligand, and thus lead to dose-dependent TR-FRET signal reduction. The cooperativity of the compounds for ternary complex formation with E3 ligase was evaluated in the absence or presence of saturating concentrations of VCB. Testing compounds were dissolved in DMSO at 10 mM and tested in 9-point IC50 mode. The assay mixture was prepared by mixing SMARCA4 (20 nM final), biotinylated probe (25 nM final), and assay buffer or VCB (5 μM) in 1×AlphaLISA Epigenetics Buffer (PerkinElmer AL008F) with 1 mM TCEP. The compounds of interest in DMSO were added to each well in 3-fold serial dilution by dispenser (TECAN D300E). and incubate for 20 minutes at room temperature before addition of detection reagents, Lance Eu W1024 anti-6×His (0.6 nM final, PerkinElmer AD0110) and Streptavidin Surelight APC (6 nM final, PerkinElmer CR130-100). The plate was then sealed and further incubated at 4° C. overnight in dark, and then was read by Envision multimode plate reader (PerkinElmer, 2102-0010). The ratio of florescence signal at 665/620 was used in data analysis. Percentage inhibition was calculated by % inhibition=100×(FDMSO-F)/(FDMSO-FPC), in which FDMSO is DMSO control, and FPC is positive control. IC50 values were determined from dose response curve by fitting the percent inhibition against compound concentration using GraphPad Prism software.

[3] = target: SMARCA2 (Homo sapiens (Human), UniProt P51531); assay: In Cell Western SMARCA2 degradation in NCIH1693 cells; assay type: cell-based; details: for DC50: read-out: DC50 (SM2_H1693) SMARCA2 degradation potency; for Dmax: NCI-H1693, overnight, read-out: Dmax % (SM2_H1693) maximum SMARCA2 degradation within the concentrations tested
Method: Compound titration and cell culture: Compounds were dissolved in DMSO to make 10 mM stock and 3-fold series dilutions were further conducted keeping the highest concentration 10 μM. NCIH1693 and NCIH520 cells were maintained in PRMI 1640 medium (Corning Cellgro, Catalog #:10-040-CV) supplemented with 10% v/v FBS (GE Healthcare, Catalog #: SH30910.03) by splitting 1:3 twice a week.
To determine SMACRA2 and SMARCA4 protein degradation DC50 values in NCIH1693 and NCIH520 cells by In Cell Western (ICW) analysis. Cells were trypsinized and 30 thousand cells/well were seeded into 384-well plates and were allowed to grow for 5 hours at 37° C. Eight-point, 3-fold serial dilutions of compounds from 10 mM stocks were added to the cells (using digital Dispenser D300-Tecan, keeping highest concentration 10 μM and normalizing with DMSO at the highest dispensed volume). Plates were incubated at 37° C. for overnight (maximum 18 hours). Cells incubated with DMSO was used as a vehicle control.
To perform In Cell Western, medium was removed from all the wells leaving cells attached to the surface. After removing the medium, cells were fixed within the plates with 40 μL of 4% formaldehyde by incubating at room temperature for 30 minutes, and then permeabilized with wash buffer (1×PBS with 0.1% Triton X-100) by washing the plate 5 times with 50 μL/well. Before labeling with primary antibodies, cells were blocked with 30 μL/well of blocking buffer (Licor Odyssey blocking buffer PBS #927-40000) for 30 minutes at room temperature. To measure SMARCA2 or SMARCA4 proteins, cells were labeled with 20 μL/well of anti SMARCA2 or SMACRA4 antibodies (Cell Signaling BRM #11966S 1:1000, Cell Signaling BRG #49360S 1:1000) diluted in Li-Cor Odyssey blocking buffer-PBS #927-40000, followed by overnight incubation at 4° C.
The next day, plates were washed 5×5 minutes with 50 μL/well of washing buffer to remove all the excess primary antibody and then 20 μL from a mixture of secondary antibody and fluorescent DNA specific dye (Goat anti rabbit 1:500 IRDye-800CW #92632211, and DRAQ5™ 1:2000-#ab108410) was added to each well. Plates were incubated for 1 hour at room temperature with gentle rocking. Cells were washed 5 times with 50 μL/well wash buffer, followed by one last wash with DI water, followed by 10 mins drying at 37° C. oven before scanning. Plates were scanned using Li-Cor Odyssey CLx imaging system to acquire integrated intensities at 700 nm and 800 nm. SMARCA signals were normalized to total cell count and then these normalized values were used to calculate the percent degradation relative to DMSO control and maximum inhibition. DC50s were calculated by using the GraphPad Prism4 program based on sigmoidal dose response equation ([Inhibitor] vs. normalized response−Variable slope).

Sequence of SMARCA2 (P51531 whole entry): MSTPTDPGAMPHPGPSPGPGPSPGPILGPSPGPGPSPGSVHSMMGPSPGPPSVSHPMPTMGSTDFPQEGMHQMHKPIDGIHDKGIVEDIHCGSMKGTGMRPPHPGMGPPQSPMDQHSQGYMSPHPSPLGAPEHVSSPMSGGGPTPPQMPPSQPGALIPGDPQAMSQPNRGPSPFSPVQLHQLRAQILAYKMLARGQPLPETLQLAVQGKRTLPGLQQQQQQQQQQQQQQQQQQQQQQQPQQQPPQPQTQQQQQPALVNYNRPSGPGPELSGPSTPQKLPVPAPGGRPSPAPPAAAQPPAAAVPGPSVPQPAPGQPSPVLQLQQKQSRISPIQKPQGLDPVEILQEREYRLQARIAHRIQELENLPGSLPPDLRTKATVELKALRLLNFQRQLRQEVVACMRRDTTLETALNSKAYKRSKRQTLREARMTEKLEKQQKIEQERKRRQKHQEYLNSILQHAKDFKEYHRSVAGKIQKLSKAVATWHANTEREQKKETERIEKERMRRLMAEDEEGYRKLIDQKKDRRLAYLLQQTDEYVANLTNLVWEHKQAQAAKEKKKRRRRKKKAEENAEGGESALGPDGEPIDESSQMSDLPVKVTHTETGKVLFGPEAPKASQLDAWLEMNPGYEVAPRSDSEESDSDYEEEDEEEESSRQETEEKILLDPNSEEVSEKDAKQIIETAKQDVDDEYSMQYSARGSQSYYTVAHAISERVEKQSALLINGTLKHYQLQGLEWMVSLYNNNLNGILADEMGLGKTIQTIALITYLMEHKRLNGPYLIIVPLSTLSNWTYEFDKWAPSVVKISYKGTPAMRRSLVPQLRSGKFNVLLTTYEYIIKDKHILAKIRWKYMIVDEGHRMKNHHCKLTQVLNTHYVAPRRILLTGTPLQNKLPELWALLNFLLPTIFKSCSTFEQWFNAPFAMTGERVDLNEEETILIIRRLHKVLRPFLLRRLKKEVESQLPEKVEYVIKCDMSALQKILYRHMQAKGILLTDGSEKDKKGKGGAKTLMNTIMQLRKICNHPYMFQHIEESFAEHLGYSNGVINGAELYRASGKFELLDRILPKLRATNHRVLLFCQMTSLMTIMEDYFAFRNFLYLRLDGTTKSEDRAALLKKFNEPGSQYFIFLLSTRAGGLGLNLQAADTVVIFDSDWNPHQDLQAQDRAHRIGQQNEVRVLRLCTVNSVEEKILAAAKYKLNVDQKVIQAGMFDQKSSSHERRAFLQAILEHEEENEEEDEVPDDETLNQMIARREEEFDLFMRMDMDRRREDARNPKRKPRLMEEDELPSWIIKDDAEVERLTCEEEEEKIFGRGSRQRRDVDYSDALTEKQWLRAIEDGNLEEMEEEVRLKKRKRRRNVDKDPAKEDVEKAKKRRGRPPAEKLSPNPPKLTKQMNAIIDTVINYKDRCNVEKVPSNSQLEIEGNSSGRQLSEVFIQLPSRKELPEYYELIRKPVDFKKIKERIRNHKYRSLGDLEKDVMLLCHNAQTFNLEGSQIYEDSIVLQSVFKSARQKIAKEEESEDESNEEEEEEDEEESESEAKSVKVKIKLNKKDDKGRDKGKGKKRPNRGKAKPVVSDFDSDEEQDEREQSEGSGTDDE
Sequence of bromo domain of SMARCA4 protein (P51532 whole entry, looked up, the tested form may be a part): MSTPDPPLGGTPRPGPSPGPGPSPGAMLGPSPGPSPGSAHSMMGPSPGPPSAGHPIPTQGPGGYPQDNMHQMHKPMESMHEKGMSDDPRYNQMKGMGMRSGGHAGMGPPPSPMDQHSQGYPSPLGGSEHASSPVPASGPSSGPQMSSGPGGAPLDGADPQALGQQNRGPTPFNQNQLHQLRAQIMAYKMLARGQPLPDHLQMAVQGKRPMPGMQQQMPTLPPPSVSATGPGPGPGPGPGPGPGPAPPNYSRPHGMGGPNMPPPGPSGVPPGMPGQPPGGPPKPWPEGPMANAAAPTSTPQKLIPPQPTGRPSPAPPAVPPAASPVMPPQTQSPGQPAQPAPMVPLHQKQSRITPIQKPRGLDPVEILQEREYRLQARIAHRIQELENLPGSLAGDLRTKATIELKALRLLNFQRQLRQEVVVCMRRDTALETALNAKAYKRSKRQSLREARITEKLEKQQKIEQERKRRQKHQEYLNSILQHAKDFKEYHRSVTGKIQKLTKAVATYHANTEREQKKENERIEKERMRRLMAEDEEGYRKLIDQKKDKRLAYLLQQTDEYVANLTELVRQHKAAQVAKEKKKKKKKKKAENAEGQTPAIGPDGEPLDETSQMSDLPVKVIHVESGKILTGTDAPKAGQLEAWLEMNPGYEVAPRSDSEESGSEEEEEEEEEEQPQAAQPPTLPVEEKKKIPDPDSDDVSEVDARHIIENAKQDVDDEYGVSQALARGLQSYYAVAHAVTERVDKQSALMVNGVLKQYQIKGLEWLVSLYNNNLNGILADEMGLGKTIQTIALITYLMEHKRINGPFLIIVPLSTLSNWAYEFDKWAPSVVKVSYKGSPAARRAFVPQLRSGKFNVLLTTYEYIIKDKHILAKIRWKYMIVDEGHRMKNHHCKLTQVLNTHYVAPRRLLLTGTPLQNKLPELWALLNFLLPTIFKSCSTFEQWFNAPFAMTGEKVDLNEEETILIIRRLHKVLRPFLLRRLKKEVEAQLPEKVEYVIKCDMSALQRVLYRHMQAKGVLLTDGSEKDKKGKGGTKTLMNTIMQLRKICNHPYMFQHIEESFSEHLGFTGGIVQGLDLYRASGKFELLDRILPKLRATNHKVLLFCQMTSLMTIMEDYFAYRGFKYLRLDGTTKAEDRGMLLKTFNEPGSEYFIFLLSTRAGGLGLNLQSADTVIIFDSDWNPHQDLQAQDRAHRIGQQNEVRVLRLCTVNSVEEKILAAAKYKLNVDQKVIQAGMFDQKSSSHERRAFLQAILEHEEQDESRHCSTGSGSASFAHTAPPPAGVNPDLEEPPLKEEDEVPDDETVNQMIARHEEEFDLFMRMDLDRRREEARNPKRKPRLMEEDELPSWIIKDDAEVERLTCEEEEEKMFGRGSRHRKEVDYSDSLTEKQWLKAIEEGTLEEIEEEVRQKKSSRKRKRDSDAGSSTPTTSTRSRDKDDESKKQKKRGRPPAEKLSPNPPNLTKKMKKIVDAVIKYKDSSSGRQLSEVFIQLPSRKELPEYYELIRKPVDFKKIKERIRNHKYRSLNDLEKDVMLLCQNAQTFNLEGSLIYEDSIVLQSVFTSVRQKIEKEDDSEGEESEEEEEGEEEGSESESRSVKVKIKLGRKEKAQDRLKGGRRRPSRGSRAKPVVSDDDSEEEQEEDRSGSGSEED
Sequence of bromo domain of SMARCA4 protein (P40337 whole entry, looked up, the tested form may be a part): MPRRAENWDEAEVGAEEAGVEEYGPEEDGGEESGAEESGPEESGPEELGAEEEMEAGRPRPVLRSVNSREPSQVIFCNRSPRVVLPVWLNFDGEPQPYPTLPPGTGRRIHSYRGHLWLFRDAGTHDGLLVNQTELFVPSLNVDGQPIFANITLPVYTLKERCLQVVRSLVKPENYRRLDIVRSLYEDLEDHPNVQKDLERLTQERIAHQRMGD
Sequence of bromo domain of SMARCA4 protein (Q15370 whole entry partner, looked up, the tested form may be a part): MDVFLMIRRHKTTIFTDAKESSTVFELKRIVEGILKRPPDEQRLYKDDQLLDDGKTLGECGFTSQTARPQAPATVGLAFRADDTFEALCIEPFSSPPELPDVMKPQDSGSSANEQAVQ
Sequence of bromo domain of SMARCA4 protein (Q15369 whole entry partner, looked up, the tested form may be a part): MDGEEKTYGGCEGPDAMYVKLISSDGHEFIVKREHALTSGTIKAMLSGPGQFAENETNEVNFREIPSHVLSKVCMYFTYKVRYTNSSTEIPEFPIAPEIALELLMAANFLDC

IC50 [2] [nM]	DC50 ([3]; H1693 cells, overnight) [nM]	Dmax [3] [%]	Dmax % (SM2_H1693) maximum SMARCA2 degradation within the concentrations tested ([3]; H1693 cells, overnight)	SMILES	IC50 [1] [nM]
< 100	< 100	> 75		Cc1ncsc1-c1ccc([C@H](C)NC(=O)[C@@H]2C[C@@H](O)CN2C(=O)[C@@H](NC(=O)CN2CCN3c4cc(-c5ccccc5O)nnc4NCC3C2)C(C)(C)C)cc1 (single isomer, unassigned) [Example 1b]	100 to 1000
100 to 1000	100 to 1000	> 75		Cc1scnc1-c1ccc(CNC(=O)[C@@H]2C[C@@H](O)CN2C(=O)[C@@H](NC(=O)CN2CCN3c4cc(-c5ccccc5O)nnc4NCC3C2)C(C)(C)C)cc1 (single isomer, unassigned) [Example 2a]	100 to 1000
< 100	1000 to 10000		A (A = Dmax > 75%)	Cc1scnc1-c1ccc(CNC(=O)[C@@H]2C[C@@H](O)CN2C(=O)[C@@H](NC(=O)CN2CCN3c4cc(-c5ccccc5O)nnc4NCC3C2)C(C)(C)C)cc1 (single isomer, unassigned) [Example 2b]	1000 to 10000
